Like-named read-outs stand apart in the source and are kept apart here.
Key:
[1] = system: RNR containing hRRM2 or p53R2; assay: In vitro RNR activity assay, both reconstituted RNRs compared (average, selective index, comparison in words); assay type: biochemical, human; details: for Selective index: M2/M1 versus p53R2/M1
Description: (§1) To reconstitute an active RNR, three 6′His-tag human RNR subunit proteins (hRRM2, p53R2, and hRRM1) were prokaryotically expressed, purified using Ni-resin affinity chromatography, and stored in 50 mM Tris-HCl, pH 7.4, 100 mM KCl at −70° C. according to standard techniques. The purified proteins were subjected to SDS-PAGE analysis. […] To reconstitute RNR, 1 μM of hRRM2 or p53R2 protein was incubated with 0.5 μM hRRM1 protein in multiple-well plates. The reconstitute RNR was tested for RNR activity according to standard techniques.
(§2) Each compound of various concentration was mixed with the purified hRRM2 and hRRM1, or p53R2 and hRRM1 at room temperature for 30 minutes. An enzymatic reaction buffer was then added to the mixture to reach a final volume of 100 μl and incubated at 37° C. for 30 minutes. The reaction buffer contained […] [^3H] CDP, 50 mM HEPES pH 7.2,6 mM DTT, 4 mM MgOAC, 2 mM ATP, 0.05 mM CDP, 100 mM KCl, and 0.24 mM NADPH. […] FeCl3 could be added to the buffer as an iron source. After dephosphorylation, the supernatant of each reaction mixture was analyzed by an HPLC-connected radioactivity detector. IC50 values were calculated by the non-linear regression equations: f (x)=(a-d)/[1+(x/c)^b]+d.
(§3) The above-described four SB-HSCs were tested for their inhibitory potency and subunit-selectivity by the in vitro RNR assay in the same manner descried above. The dose-dependent inhibition curves were found.

[2] = Standard cell-based assay; details: read-out: Cell-based assay (IC50 ± sd)
[3] = system: T1, RNR containing hRRM2 or p53R2; assay: In vitro RNR activity assay, both reconstituted RNRs compared (average, selective index, comparison in words); assay type: biochemical, human; details: average of M2/M1 and p53R2/M1, read-out: In vitro RR activity (IC50) Average
T1 construct: In vitro RR activity (IC50) Average; other: compound in 1% DMSO; average of M2/M1 and p53R2/M1; other: compound in 2.5% DMSO; other: compound in dH2O + FeCl3; other: compound in dH2O; Inhi; fused on or other part: 6xHis tag on each subunit
Description: as §1, §2, §3

[4] = biological target: T2, M2/M1 (hRRM2 and hRRM1 reconstituted RNR) (Homo sapiens, UniProt P31350); assay: In vitro RNR activity assay with reconstituted hRRM2/hRRM1 ([3H]CDP reduction); assay type: biochemical; details: read-out: In vitro RR activity (IC50 ± sd) M2/M1
T2 construct: 6xHis; made in house
T2 sequence (P31350 1-389): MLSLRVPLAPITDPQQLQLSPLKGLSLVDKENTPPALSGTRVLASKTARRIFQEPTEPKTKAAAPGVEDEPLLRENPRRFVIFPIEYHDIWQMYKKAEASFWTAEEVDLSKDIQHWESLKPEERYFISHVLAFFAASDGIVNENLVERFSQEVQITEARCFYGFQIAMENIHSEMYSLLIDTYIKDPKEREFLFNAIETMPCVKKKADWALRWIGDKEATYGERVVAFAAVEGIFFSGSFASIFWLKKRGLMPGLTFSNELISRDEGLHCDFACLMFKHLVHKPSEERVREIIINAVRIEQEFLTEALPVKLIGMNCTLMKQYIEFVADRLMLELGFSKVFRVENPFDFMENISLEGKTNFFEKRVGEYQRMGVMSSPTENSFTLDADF
Description: as §1, §2

[5] = biological target: T3, p53R2/M1 (p53R2 and hRRM1 reconstituted RNR) (Homo sapiens, UniProt Q7LG56); assay: In vitro RNR activity assay with reconstituted p53R2/hRRM1 ([3H]CDP reduction); assay type: biochemical; details: read-out: In vitro RR activity (IC50 ± sd) p53R2/M1
T3 construct: 6xHis; made in house
T3 sequence (Q7LG56 1-351): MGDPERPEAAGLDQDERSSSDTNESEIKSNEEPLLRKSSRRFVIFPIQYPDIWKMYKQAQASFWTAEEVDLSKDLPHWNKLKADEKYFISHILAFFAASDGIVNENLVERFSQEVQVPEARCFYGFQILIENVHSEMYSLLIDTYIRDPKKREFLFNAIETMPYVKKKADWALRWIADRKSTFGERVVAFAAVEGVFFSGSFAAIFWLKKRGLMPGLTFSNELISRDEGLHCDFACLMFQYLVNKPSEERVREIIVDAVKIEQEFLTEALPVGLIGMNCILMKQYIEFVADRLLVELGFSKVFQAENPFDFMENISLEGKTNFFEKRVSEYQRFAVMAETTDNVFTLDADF
Description: as §1, §2

[6] = biological target: T4, hRRM1 (human ribonucleotide reductase large subunit M1)
T4 chain: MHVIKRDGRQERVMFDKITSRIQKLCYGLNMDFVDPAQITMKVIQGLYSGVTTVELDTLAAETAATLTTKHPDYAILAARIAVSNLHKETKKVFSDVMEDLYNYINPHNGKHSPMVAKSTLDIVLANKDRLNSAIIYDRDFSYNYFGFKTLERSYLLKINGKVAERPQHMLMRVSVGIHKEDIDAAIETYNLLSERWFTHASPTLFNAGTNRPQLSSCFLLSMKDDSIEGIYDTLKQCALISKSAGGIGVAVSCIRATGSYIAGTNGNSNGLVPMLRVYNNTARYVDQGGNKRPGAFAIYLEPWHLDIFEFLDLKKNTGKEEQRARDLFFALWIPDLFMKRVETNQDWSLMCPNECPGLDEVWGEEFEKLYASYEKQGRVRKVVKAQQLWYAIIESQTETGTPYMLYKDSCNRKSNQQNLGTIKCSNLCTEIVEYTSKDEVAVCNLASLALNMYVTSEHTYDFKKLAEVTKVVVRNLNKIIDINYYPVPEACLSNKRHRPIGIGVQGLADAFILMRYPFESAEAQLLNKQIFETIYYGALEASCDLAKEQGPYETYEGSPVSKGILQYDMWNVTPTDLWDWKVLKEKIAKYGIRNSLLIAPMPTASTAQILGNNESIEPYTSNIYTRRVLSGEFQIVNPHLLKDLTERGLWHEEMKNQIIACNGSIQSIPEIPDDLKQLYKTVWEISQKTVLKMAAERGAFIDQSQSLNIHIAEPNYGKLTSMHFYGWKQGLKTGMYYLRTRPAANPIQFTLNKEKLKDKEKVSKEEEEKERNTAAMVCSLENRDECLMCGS

[7] = biological target: T5, hRRM1 (human ribonucleotide reductase large subunit M1) (human, UniProt P23921 1-792); assay: complex formation (method not described)
T5 construct: also called R1 subunit
T5 sequence: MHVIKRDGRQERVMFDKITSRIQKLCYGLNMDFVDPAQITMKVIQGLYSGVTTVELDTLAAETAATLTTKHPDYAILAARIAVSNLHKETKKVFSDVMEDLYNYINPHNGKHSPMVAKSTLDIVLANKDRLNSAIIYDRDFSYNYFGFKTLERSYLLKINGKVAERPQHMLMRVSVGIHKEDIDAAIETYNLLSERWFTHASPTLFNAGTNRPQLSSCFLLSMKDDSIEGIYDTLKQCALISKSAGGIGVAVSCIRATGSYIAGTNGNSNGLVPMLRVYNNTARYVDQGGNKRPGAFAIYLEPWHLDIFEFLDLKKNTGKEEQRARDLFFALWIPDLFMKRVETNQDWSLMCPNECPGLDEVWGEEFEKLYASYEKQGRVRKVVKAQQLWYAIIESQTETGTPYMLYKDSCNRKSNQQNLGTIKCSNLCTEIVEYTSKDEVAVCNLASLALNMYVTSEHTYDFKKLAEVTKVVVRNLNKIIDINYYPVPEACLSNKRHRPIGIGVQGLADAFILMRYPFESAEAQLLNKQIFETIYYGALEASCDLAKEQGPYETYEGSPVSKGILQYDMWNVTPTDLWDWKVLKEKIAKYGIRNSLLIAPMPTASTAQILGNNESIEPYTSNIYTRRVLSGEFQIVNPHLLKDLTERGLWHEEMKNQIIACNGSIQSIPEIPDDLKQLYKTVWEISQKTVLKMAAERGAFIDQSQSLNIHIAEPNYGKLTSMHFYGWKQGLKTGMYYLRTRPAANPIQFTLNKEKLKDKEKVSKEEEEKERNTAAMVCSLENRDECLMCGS

C[S+](C)[O-] [DMSO]
Small subunit selectivity of RNR inhibition (in words) [1]: inhibited p53R2-containing-RNR more potently than hRRM2-containing RNR

O=C(NO)NN=Cc1cc(Cl)cc(Cl)c1O [SB-HSC2]
IC50 [2]: 6.5 ± 0.6 µM | IC50 ([3]; compound in 2.5% DMSO): 70.7 µM | Small subunit selectivity of RNR inhibition (in words) [1]: significantly more efficient in inactivating p53R2 | Selective index ([1]; compound in 2.5% DMSO): 3.62 | IC50 ([4]; compound in 2.5% DMSO): 111 ± 6.64 µM | IC50 ([5]; compound in 2.5% DMSO): 30.6 ± 1.62 µM

O=C(NO)NN=Cc1ccc(O)c(O)c1O [SB-HSC21]
IC50 [2]: 2.7 ± 0.6 µM | IC50 ([3]; compound in 1% DMSO): 12.5 µM | Small subunit selectivity of RNR inhibition (in words) [1]: almost the same inhibitory activities on both small subunits | Selective index ([1]; compound in 1% DMSO): 0.85 | IC50 ([4]; compound in 1% DMSO): 11.5 ± 0.63 µM | IC50 ([5]; compound in 1% DMSO): 13.6 ± 0.7 µM

O=C(NO)NN=Cc1ccc([N+](=O)[O-])s1 [SB-HSC24]
IC50 [2]: 10.6 ± 0.3 µM | IC50 ([3]; compound in 2.5% DMSO): 31.7 µM | Small subunit selectivity of RNR inhibition (in words) [1]: significantly more efficient in inactivating p53R2 | Selective index ([1]; compound in 2.5% DMSO): 4.53 | IC50 ([4]; compound in 2.5% DMSO): 52 ± 2.03 µM | IC50 ([5]; compound in 2.5% DMSO): 11.5 ± 0.6 µM

Cc1c2ccccc2c(C=NNC(=O)NO)c2ccccc12 [SB-HSC29]
IC50 [2]: 4.4 µM | IC50 ([3]; compound in 2.5% DMSO): > 250 µM | IC50 ([4]; compound in 2.5% DMSO): > 250 µM | IC50 ([5]; compound in 2.5% DMSO): > 250 µM

NNC(N)=O [SC, semicarbazide, reference compound]
IC50 [2]: > 2190 µM | IC50 ([3]; compound in dH2O): > 5000 µM | IC50 ([4]; compound in dH2O): > 5000 µM | IC50 ([5]; compound in dH2O): > 5000 µM

B1: hRRM2 (human ribonucleotide reductase small subunit M2) (protein)
chain: MLSLRVPLAPITDPQQLQLSPLKGLSLVDKENTPPALSGTRVLASKTARRIFQEPTEPKTKAAAPGVEDEPLLRENPRRFVIFPIEYHDIWQMYKKAEASFWTAEEVDLSKDIQHWESLKPEERYFISHVLAFFAASDGIVNENLVERFSQEVQITEARCFYGFQIAMENIHSEMYSLLIDTYIKDPKEREFLFNAIETMPCVKKKADWALRWIGDKEATYGERVVAFAAVEGIFFSGSFASIFWLKKRGLMPGLTFSNELISRDEGLHCDFACLMFKHLVHKPSEERVREIIINAVRIEQEFLTEALPVKLIGMNCTLMKQYIEFVADRLMLELGFSKVFRVENPFDFMENISLEGKTNFFEKRVGEYQRMGVMSSPTENSFTLDADF
RNR activity of reconstituted RNR [6]: It was found it possessed RNR activity

B2: truncated form of the M2 subunit, lacking these 7 amino acids at the C-terminus (enzyme)
chain: MLSLRVPLAPITDPQQLQLSPLKGLSLVDKENTPPALSGTRVLASKTARRIFQEPTEPKTKAAAPGVEDEPLLRENPRRFVIFPIEYHDIWQMYKKAEASFWTAEEVDLSKDIQHWESLKPEERYFISHVLAFFAASDGIVNENLVERFSQEVQITEARCFYGFQIAMENIHSEMYSLLIDTYIKDPKEREFLFNAIETMPCVKKKADWALRWIGDKEATYGERVVAFAAVEGIFFSGSFASIFWLKKRGLMPGLTFSNELISRDEGLHCDFACLMFKHLVHKPSEERVREIIINAVRIEQEFLTEALPVKLIGMNCTLMKQYIEFVADRLMLELGFSKVFRVENPFDFMENISLEGKTNFFEKRVGEYQRMGVMSSPTENS
notes: also called truncated M2
binding result [7]: no binding

B3: p53R2 (human ribonucleotide reductase small subunit p53R2) (protein)
chain: MGDPERPEAAGLDQDERSSSDTNESEIKSNEEPLLRKSSRRFVIFPIQYPDIWKMYKQAQASFWTAEEVDLSKDLPHWNKLKADEKYFISHILAFFAASDGIVNENLVERFSQEVQVPEARCFYGFQILIENVHSEMYSLLIDTYIRDPKKREFLFNAIETMPYVKKKADWALRWIADRKSTFGERVVAFAAVEGVFFSGSFAAIFWLKKRGLMPGLTFSNELISRDEGLHCDFACLMFQYLVNKPSEERVREIIVDAVKIEQEFLTEALPVGLIGMNCILMKQYIEFVADRLLVELGFSKVFQAENPFDFMENISLEGKTNFFEKRVSEYQRFAVMAETTDNVFTLDADF
RNR activity of reconstituted RNR [6]: It was found it possessed RNR activity

From patent US20050260637A1, “Drug screening” (priority 2004, published 2005)
